# Experiments:
# S. aureus ATCC 6538 = experiment: quantitative suspension assay of mono-substances; type: cell-based, Staphylococcus aureus
# Method: A stock solution was prepared by adding 0.1 ml methanol to 10.48 mg of hydroxytyrosol. After dissolving of the compound, the solution was quantitatively transferred into 4.9 ml water for injection (WFI), effective concentration of hydroxytyrosol: 2.0 mg/ml.
# Using the stock solution, five (5) concentrations of hydroxytyrosol in a geometric series of 2 mg hydroxytyrosol/ml to 0.125 mg hydroxytyrosol/ml were tested in a quantitative suspension assay.
# 2 ml of the stock solution and the dilutions (V1 to V4), respectively, and a methanol-solution of 2% as a positive control were inoculated with 0.1 ml of a test suspension of S. aureus ATCC 6538, adjusted to about 2.0×10^5 CFU/0.1 ml, resulting in about 100,000 CFU/ml in the individual assays.
# Samples (0.1 ml) were then taken at t 0, 12, 30, and 60 minutes as well as t 24 48, and 72 hours after inoculation and culturing at between 20-25° C., and were diluted with 0.9 ml of 0.9% NaCl solution. The samples were plated on blood agar plates, and incubated up to 5 days at between 30-35° C.
# A stock solution was prepared at a concentration of 2 mg/ml of oleocanthal. The compound was dissolved by in ethanol (99.8%) and WFI was added.
# Using the stock solution, concentrations of oleocanthal in a geometric series of 1 mg oleocanthal/ml to 0.125 mg oleocanthal/ml were tested in a quantitative suspension assay.
# 2 ml of the stock solution and the dilutions (V1 to V4), respectively, and a ethanol-solution of 2.85% as a positive control were inoculated with 0.055 ml of a test suspension of S. aureus ATCC 6538, adjusted to about 3.6×10^5 CFU/0.1 ml, resulting in about 99,000 CFU/ml in the individual assays.
# A stock solution was prepared at a concentration of 1 mg/ml of oleacin. The compound was dissolved by in ethanol (99.8%) and WFI was added.
# Using the stock solution, concentrations of oleacin at 0.25 mg oleacin/ml and 0.125 mg oleacin/ml were tested in a quantitative suspension assay.
# 2 ml of the stock solution and the dilutions (V1 and V2), respectively, and a ethanol-solution of 0.44% as a positive control were inoculated with 0.055 ml of a test suspension of S. aureus ATCC 6538, adjusted to about 3.5×10^5 CFU/0.1 ml, resulting in about 99,000 CFU/ml in the individual assays.
# A stock solution was prepared by adding 0.1 ml chloroform to 25 mg of uvaol. After dissolving of the compound, the solution was quantitatively transferred into 12.4 ml water for injection (WFI), effective concentration of uvaol: 2.0 mg/ml.
# Using the stock solution, five (5) concentrations of uvaol in a geometric series of 2 mg uvaol/ml to 0.125 mg uvaol/ml were tested in a quantitative suspension assay.
# 2 ml of the stock solution and the dilutions (V1 to V4), respectively, and a chloroform-solution of 0.8% as a positive control were inoculated with 0.1 ml of a test suspension of S. aureus ATCC 6538, adjusted to about 2.0×10^5 CFU/0.1 ml, resulting in about 100,000 CFU/ml in the individual assays.
# A stock solution was prepared by adding 0.1 ml chloroform to 10.45 mg of erythrodiol. After dissolving of the compound, the solution was quantitatively transferred into 4.9 ml water for injection (WFI), effective concentration of erythrodiol: 2.0 mg/ml.
# 2 ml of the stock solution and the dilutions (V1 to V4), respectively, and a chloroform-solution of 2% as a positive control were inoculated with 0.1 ml of a test suspension of S. aureus ATCC 6538, adjusted to about 3.6×10^5 CFU/0.1 ml, resulting in about 100.000 CFU/ml in the individual assays.
# test microorganisms = conditions: cited from earlier work
smiles,measurement,setting,value
CC=C(C=O)C(CC=O)CC(=O)OCCc1ccc(O)c(O)c1 (stereo in doubt) [oleacin],Number of CFUs,"S. aureus ATCC 6538; 0.125 Oci/ml, t 0 min, initial cell load 9.9 × 10^4 CFU/ml",4.3 × 10^3 CFU/ml
same,Number of CFUs,"S. aureus ATCC 6538; 0.125 Oci/ml, t 12 min, initial cell load 9.9 × 10^4 CFU/ml",<100 CFU/ml
same,Number of CFUs,"S. aureus ATCC 6538; 0.125 Oci/ml, t 30 min, initial cell load 9.9 × 10^4 CFU/ml",<100 CFU/ml
same,Number of CFUs,"S. aureus ATCC 6538; 0.125 Oci/ml, t 60 min, initial cell load 9.9 × 10^4 CFU/ml",<100 CFU/ml
same,Number of CFUs,"S. aureus ATCC 6538; 0.125 Oci/ml, t 24 h, initial cell load 9.9 × 10^4 CFU/ml",<100 CFU/ml
same,Number of CFUs,"S. aureus ATCC 6538; 0.125 Oci/ml, t 48 h, initial cell load 9.9 × 10^4 CFU/ml",<100 CFU/ml
same,Number of CFUs,"S. aureus ATCC 6538; 0.125 Oci/ml, t 72 h, initial cell load 9.9 × 10^4 CFU/ml",<100 CFU/ml
same,Number of CFUs,"S. aureus ATCC 6538; 0.25 Oci/ml, t 0 min, initial cell load 9.9 × 10^4 CFU/ml",1.8 × 10^3 CFU/ml
same,Number of CFUs,"S. aureus ATCC 6538; 0.25 Oci/ml, t 12 min, initial cell load 9.9 × 10^4 CFU/ml",<100 CFU/ml
same,Number of CFUs,"S. aureus ATCC 6538; 0.25 Oci/ml, t 30 min, initial cell load 9.9 × 10^4 CFU/ml",<100 CFU/ml
same,Number of CFUs,"S. aureus ATCC 6538; 0.25 Oci/ml, t 60 min, initial cell load 9.9 × 10^4 CFU/ml",<100 CFU/ml
same,Number of CFUs,"S. aureus ATCC 6538; 0.25 Oci/ml, t 24 h, initial cell load 9.9 × 10^4 CFU/ml",<100 CFU/ml
same,Number of CFUs,"S. aureus ATCC 6538; 0.25 Oci/ml, t 48 h, initial cell load 9.9 × 10^4 CFU/ml",<100 CFU/ml
same,Number of CFUs,"S. aureus ATCC 6538; 0.25 Oci/ml, t 72 h, initial cell load 9.9 × 10^4 CFU/ml",<100 CFU/ml
same,"antimicrobial effect, summary in words",S. aureus ATCC 6538; detection limit of the assay 100 CFU/ml,immediate effect at the concentrations tested
COc1cc(C(=O)O)cc(OC)c1O [syringic acid],antimicrobial activities of phenolic compounds,test microorganisms,ineffective
OCCc1ccc(O)c(O)c1 [Hydroxytyrosol],Number of CFUs,"S. aureus ATCC 6538; 0.125 Hyd/ml, t 0 min, initial cell load 1.7 × 10^5 CFU/ml",7.0 × 10^4 CFU/ml
same,Number of CFUs,"S. aureus ATCC 6538; 0.125 Hyd/ml, t 12 min, initial cell load 1.7 × 10^5 CFU/ml",7.4 × 10^4 CFU/ml
same,Number of CFUs,"S. aureus ATCC 6538; 0.125 Hyd/ml, t 30 min, initial cell load 1.7 × 10^5 CFU/ml",7.0 × 10^4 CFU/ml
same,Number of CFUs,"S. aureus ATCC 6538; 0.125 Hyd/ml, t 60 min, initial cell load 1.7 × 10^5 CFU/ml",6.8 × 10^4 CFU/ml
same,Number of CFUs,"S. aureus ATCC 6538; 0.125 Hyd/ml, t 24 h, initial cell load 1.7 × 10^5 CFU/ml",2.8 × 10^3 CFU/ml
same,Number of CFUs,"S. aureus ATCC 6538; 0.125 Hyd/ml, t 48 h, initial cell load 1.7 × 10^5 CFU/ml",<100 CFU/ml
same,Number of CFUs,"S. aureus ATCC 6538; 0.125 Hyd/ml, t 72 h, initial cell load 1.7 × 10^5 CFU/ml",7.1 × 10^2 CFU/ml
same,Number of CFUs,"S. aureus ATCC 6538; 0.25 Hyd/ml, t 0 min, initial cell load 1.7 × 10^5 CFU/ml",5.7 × 10^4 CFU/ml
same,Number of CFUs,"S. aureus ATCC 6538; 0.25 Hyd/ml, t 12 min, initial cell load 1.7 × 10^5 CFU/ml",5.1 × 10^4 CFU/ml
same,Number of CFUs,"S. aureus ATCC 6538; 0.25 Hyd/ml, t 30 min, initial cell load 1.7 × 10^5 CFU/ml",5.9 × 10^4 CFU/ml
same,Number of CFUs,"S. aureus ATCC 6538; 0.25 Hyd/ml, t 60 min, initial cell load 1.7 × 10^5 CFU/ml",7.4 × 10^4 CFU/ml
same,Number of CFUs,"S. aureus ATCC 6538; 0.25 Hyd/ml, t 24 h, initial cell load 1.7 × 10^5 CFU/ml",1.4 × 10^3 CFU/ml
same,Number of CFUs,"S. aureus ATCC 6538; 0.25 Hyd/ml, t 48 h, initial cell load 1.7 × 10^5 CFU/ml",<100 CFU/ml
same,Number of CFUs,"S. aureus ATCC 6538; 0.25 Hyd/ml, t 72 h, initial cell load 1.7 × 10^5 CFU/ml",<100 CFU/ml
same,Number of CFUs,"S. aureus ATCC 6538; 0.5 Hyd/ml, t 0 min, initial cell load 1.7 × 10^5 CFU/ml",7.0 × 10^4 CFU/ml
same,Number of CFUs,"S. aureus ATCC 6538; 0.5 Hyd/ml, t 12 min, initial cell load 1.7 × 10^5 CFU/ml",6.6 × 10^4 CFU/ml
same,Number of CFUs,"S. aureus ATCC 6538; 0.5 Hyd/ml, t 30 min, initial cell load 1.7 × 10^5 CFU/ml",6.4 × 10^4 CFU/ml
same,Number of CFUs,"S. aureus ATCC 6538; 0.5 Hyd/ml, t 60 min, initial cell load 1.7 × 10^5 CFU/ml",6.1 × 10^4 CFU/ml
same,Number of CFUs,"S. aureus ATCC 6538; 0.5 Hyd/ml, t 24 h, initial cell load 1.7 × 10^5 CFU/ml",2.0 × 10^2 CFU/ml
same,Number of CFUs,"S. aureus ATCC 6538; 0.5 Hyd/ml, t 48 h, initial cell load 1.7 × 10^5 CFU/ml",<100 CFU/ml
same,Number of CFUs,"S. aureus ATCC 6538; 0.5 Hyd/ml, t 72 h, initial cell load 1.7 × 10^5 CFU/ml",<100 CFU/ml
same,Number of CFUs,"S. aureus ATCC 6538; 1.0 Hyd/ml, t 0 min, initial cell load 1.7 × 10^5 CFU/ml",6.8 × 10^4 CFU/ml
same,Number of CFUs,"S. aureus ATCC 6538; 1.0 Hyd/ml, t 12 min, initial cell load 1.7 × 10^5 CFU/ml",7.8 × 10^4 CFU/ml
same,Number of CFUs,"S. aureus ATCC 6538; 1.0 Hyd/ml, t 30 min, initial cell load 1.7 × 10^5 CFU/ml",7.4 × 10^4 CFU/ml
same,Number of CFUs,"S. aureus ATCC 6538; 1.0 Hyd/ml, t 60 min, initial cell load 1.7 × 10^5 CFU/ml",7.2 × 10^4 CFU/ml
same,Number of CFUs,"S. aureus ATCC 6538; 1.0 Hyd/ml, t 24 h, initial cell load 1.7 × 10^5 CFU/ml",<100 CFU/ml
same,Number of CFUs,"S. aureus ATCC 6538; 1.0 Hyd/ml, t 48 h, initial cell load 1.7 × 10^5 CFU/ml",<100 CFU/ml
same,Number of CFUs,"S. aureus ATCC 6538; 1.0 Hyd/ml, t 72 h, initial cell load 1.7 × 10^5 CFU/ml",<100 CFU/ml
same,Number of CFUs,"S. aureus ATCC 6538; 2.0 Hyd/ml, t 0 min, initial cell load 1.7 × 10^5 CFU/ml",7.0 × 10^4 CFU/ml
same,Number of CFUs,"S. aureus ATCC 6538; 2.0 Hyd/ml, t 12 min, initial cell load 1.7 × 10^5 CFU/ml",8.9 × 10^4 CFU/ml
same,Number of CFUs,"S. aureus ATCC 6538; 2.0 Hyd/ml, t 30 min, initial cell load 1.7 × 10^5 CFU/ml",5.9 × 10^4 CFU/ml
same,Number of CFUs,"S. aureus ATCC 6538; 2.0 Hyd/ml, t 60 min, initial cell load 1.7 × 10^5 CFU/ml",5.9 × 10^4 CFU/ml
same,Number of CFUs,"S. aureus ATCC 6538; 2.0 Hyd/ml, t 24 h, initial cell load 1.7 × 10^5 CFU/ml",<100 CFU/ml
same,Number of CFUs,"S. aureus ATCC 6538; 2.0 Hyd/ml, t 48 h, initial cell load 1.7 × 10^5 CFU/ml",<100 CFU/ml
same,Number of CFUs,"S. aureus ATCC 6538; 2.0 Hyd/ml, t 72 h, initial cell load 1.7 × 10^5 CFU/ml",<100 CFU/ml

# Source: patent publication US20220395549A1, “COMPOSITIONS OF THE OLEA EUROPAEA V. SYLVESTRIS WITH ANTIMICROBIAL EFFICACY” (TAPROGGE GMBH, priority 2019, published 2022)
